From EP0257993B1, “Nucleic acid fragment encoding herbicide resistant plant acetolactate synthase” (priority 1986, dated 1988)
Like-named read-outs stand apart in the source and are kept apart here.

Columns and labels:
ALS [1] = test: ALS assay, wild type Brassica napus; type: biochemical
Procedure: Keep on ice. • 2. […] 16K rpm, 4°C. • 4. […] Incubate on ice for 30 minutes. • 6. […] Decant supernatant. • 7. Resuspend pellet in 1 ml cold column buffer. • 8. […] Let this run through column. • 9. Elute proteins with 2X volume of extract loaded. […] Incubate reaction for 1 hour, 30°C. • 12. […] Spin in microfuge 5 minutes. • 13. […] Read at OD 530.

[2] = system: Cells of N.tabacum cv. W38; test: Level of chlorsulfuron resistance in transformed N. tabacum colonies; type: cell-based
calli of B. vulgaris = test: Chlorsulfuron resistance of sugarbeet calli; type: cell-based, Beta vulgaris 87193
Description: Selection for transformed plant cells was applied as follows. […] The number of resistant colonies was counted after 20-30 days. More than one may be observed at each wound. Transformants were excised as follows. Callus was removed from the wound/explant with a surgical blade and cultured independently on fresh selective media. Some Agrobacterium can escape from counter-selection. Additional washes in cefotaxime containing liquid media are possible, as is repeated transfer to cefotaxime containing agar solidified plates. […]

Brassica napus = Brassica napus plants sprayed with chlorsulfuron; type: in vivo, Brassica napus cv. Olga
ALS [3] = type: biochemical, Nicotiana tabacum; details: C3 and S4 lines
Procedure: Callus cultures of sensitive tobacco (Nicotiana tabacum var. Xanthi) were exposed to sulfometuron methyl at 2 ppb according to the method described by Chaleff, U.S. 4,443,971. […] Plants were regenerated from Hra callus cultures. […] ALS activity in extracts of leaves of wild type and homozygous Hra mutant tobacco plants was determined.

[4] = system: Brassica napus callus tissue; test: Kanamycin selection of Brassica napus hypocotyl explants; type: cell-based, Brassica napus cv. Olga; details: of 100 wound sites; kanamycin 100 mg/L
melon callus = test: Kanamycin selection of melon cotyledon explants; type: cell-based, Cucumis melo cv. Amarillo Oro; details: kanamycin at 100µm/l
tobacco callus = details: Kanamycin, 50 mg/L
Procedure: For plant cell transformations, standard aseptic techniques for the manipulation of sterile media and axenic plant/bacterial cultures were followed, including the use of a laminar flow hood for all transfers. Recipes for media are given in Example VI. Potted tobacco plants for leaf disk infections were grown in a growth chamber maintained for a 12 hr. 24°C day, 12 hr, 20°C night cycle, with approximately 80% relative humidity, under mixed cool white fluorescent and incandescent lights. Tobacco leaf disk infections were carried out essentially by the method of Horsch et al. (1985) Science 227, 1229.
Young leaves, not fully expanded and approximately 4-6 inches in length, were harvested with a scalpel from approximately 4-6 week old tobacco plants (Nicotiana tabacum var. Xanthi). The leaves were surface sterilized for 30 minutes by submerging them in approximately 500 ml of a 10% Chlorox, 0.1% SDS solution and then rinsed 3 times with sterile deionized water. Leaf disks, 6 mm in diameter, were prepared from whole leaves using a sterile paper punch.
Leaf disks were inoculated by submerging them for several minutes in 20 ml of a 1:10 dilution of an overnight Agrobacterium culture carrying the plasmid GCKNT13. Agrobacterium cultures were started by inoculating 10 ml of YEB broth with a single bacterial colony removed form a R-agar plate. The culture was grown for approximately 17-20 hours in 18 mm glass culture tubes in a New Brunswick platform shaker maintained at 28°C.
After inoculation, the leaf disks were placed in petri dishes containing CN agar medium. The dishes were sealed with paraflm and incubated under mixed fluorescent and "Gro and Sho" plant light (General Electric) for 2-3 days in a culture room maintained at approximately 25°C.
[…] Cefotaxime was kept as a frozen 100 mg/ml stock solution and added aseptically (filter sterilized through a 0.45 µm filter) to the media after autoclaving. A fresh kanamycin stock (50 mg/ml) was made for each use and was filter sterilized into the autoclaved media.
Leaf disks were incubated under the growth conditions described above for 3 weeks and then transferred to fresh media of the same composition.
Root formation on selective and non-selective media was recorded within 3 weeks.
Callus growth on selective and non-selective media was recorded within 3 weeks.

## COc1nc(C)nc(NC(=O)NS(=O)(=O)c2ccccc2Cl)n1 [chlorsulfuron]
ALS [1]; 1ppb
  Percent Uninhibited ALS Activity: 86.6%
ALS [1]; 10ppb
  Percent Uninhibited ALS Activity: 28.2%
ALS [1]; 100ppb
  Percent Uninhibited ALS Activity: 10.1%
ALS [1]; 1000ppb
  Percent Uninhibited ALS Activity: 7.6%
[2]; 8.3 kb DNA fragment (SURB-Hra)
  chlorsulfuron resistance conferred in transformed tobacco calluses: up to 2000 ppb
[2]; colonies derived from co-cultivation with A. tumefaciens containing pAGS152
  concentration colonies could tolerate: up to 2000 ppb
[2]; wild type colonies
  concentration at which colonies are sensitive: 2 ppb
Calli of B. vulgaris; 87193/0 (untransformed), Chlorsulfuron 10 ppb
  level of chlorsulfuron resistance in calli of B. vulgaris: 0/15
Calli of B. vulgaris; 87193/0 (untransformed), Chlorsulfuron 30 ppb
  level of chlorsulfuron resistance in calli of B. vulgaris: 0/15
Calli of B. vulgaris; 87193/152 (transformed, pAGS152), Chlorsulfuron 10 ppb
  level of chlorsulfuron resistance in calli of B. vulgaris: 15/15
Calli of B. vulgaris; 87193/152 (transformed, pAGS152), Chlorsulfuron 30 ppb
  level of chlorsulfuron resistance in calli of B. vulgaris: 15/15
Calli of B. vulgaris; 87193/152 (transformed, pAGS152), Chlorsulfuron 100 ppb
  level of chlorsulfuron resistance in calli of B. vulgaris: 15/15
Calli of B. vulgaris; 87193/152 (transformed, pAGS152), Chlorsulfuron 300 ppb
  level of chlorsulfuron resistance in calli of B. vulgaris: 15/15
Calli of B. vulgaris; 87193/152 (transformed, pAGS152), Chlorsulfuron 1000 ppb
  level of chlorsulfuron resistance in calli of B. vulgaris: 15/15
Calli of B. vulgaris; 87193/152 (transformed, pAGS152), Chlorsulfuron 3000 ppb
  level of chlorsulfuron resistance in calli of B. vulgaris: 3/15
Calli of B. vulgaris; 87193/152 (transformed, pAGS152), Chlorsulfuron 10000 ppb
  level of chlorsulfuron resistance in calli of B. vulgaris: 0/15
Brassica napus; Ro #1, 0.3 ppm
  growth of plants sprayed with chlorsulfuron: ++
Brassica napus; Ro #1, 1 ppm
  growth of plants sprayed with chlorsulfuron: ++
Brassica napus; Ro #1, 3 ppm
  growth of plants sprayed with chlorsulfuron: ++
Brassica napus; Ro #1, 10 ppm
  growth of plants sprayed with chlorsulfuron: +
Brassica napus; Ro #2, 0.3 ppm
  growth of plants sprayed with chlorsulfuron: ++
Brassica napus; Ro #2, 1 ppm
  growth of plants sprayed with chlorsulfuron: +
Brassica napus; Ro #2, 3 ppm
  growth of plants sprayed with chlorsulfuron: -
Brassica napus; Ro #2, 10 ppm
  growth of plants sprayed with chlorsulfuron: -
Brassica napus; Ro #3, 0.3 ppm
  growth of plants sprayed with chlorsulfuron: ++
Brassica napus; Ro #3, 1 ppm
  growth of plants sprayed with chlorsulfuron: +
Brassica napus; Ro #3, 3 ppm
  growth of plants sprayed with chlorsulfuron: +
Brassica napus; Ro #3, 10 ppm
  growth of plants sprayed with chlorsulfuron: -
Brassica napus; Ro #4, 0.3 ppm
  growth of plants sprayed with chlorsulfuron: ++
Brassica napus; Ro #4, 1 ppm
  growth of plants sprayed with chlorsulfuron: +
Brassica napus; Ro #4, 3 ppm
  growth of plants sprayed with chlorsulfuron: -
Brassica napus; Ro #4, 10 ppm
  growth of plants sprayed with chlorsulfuron: -
Brassica napus; Ro #5, 0.3 ppm
  growth of plants sprayed with chlorsulfuron: +++
Brassica napus; Ro #5, 1 ppm
  growth of plants sprayed with chlorsulfuron: ++
Brassica napus; Ro #5, 3 ppm
  growth of plants sprayed with chlorsulfuron: ++
Brassica napus; Ro #5, 10 ppm
  growth of plants sprayed with chlorsulfuron: +
Brassica napus; untransformed, 0.3 ppm
  growth of plants sprayed with chlorsulfuron: ++
Brassica napus; untransformed, 1 ppm
  growth of plants sprayed with chlorsulfuron: +
Brassica napus; untransformed, 3 ppm
  growth of plants sprayed with chlorsulfuron: -
Brassica napus; untransformed, 10 ppm
  growth of plants sprayed with chlorsulfuron: -
ALS [3]
  resistance of ALS enzyme activity compared with ALS from wild type: one-hundred fold

## NC[C@H]1O[C@H](O[C@H]2[C@H](O)[C@@H](O[C@H]3O[C@H](CO)[C@@H](O)[C@H](N)[C@H]3O)[C@H](N)C[C@@H]2N)[C@H](O)[C@@H](O)[C@@H]1O [Kanamycin]
[4]
  wound sites that developed callus tissue resistant to kanamycin: 20
Melon callus
  explants that developed callus resistant to kanamycin: Approximately 70%
Tobacco callus; EXP. #1, GV3850
  Number of transformed shoot explants producing callus on selective and non-selective media: 0/10
Tobacco callus; EXP. #1, GVKK
  Number of transformed shoot explants producing callus on selective and non-selective media: 8/13
Tobacco callus; EXP. #1, GVKNT13
  Number of transformed shoot explants producing callus on selective and non-selective media: 53/62
Tobacco callus; Exp. #2, GV3850
  Number of transformed shoot explants producing callus on selective and non-selective media: 0/25
Tobacco callus; Exp. #2, GVKK
  Number of transformed shoot explants producing callus on selective and non-selective media: 16/23
Tobacco callus; Exp. #2, GVKNT13
  Number of transformed shoot explants producing callus on selective and non-selective media: 81/102
